Here are results for 23 compounds from patent publication EP3628672A1 (priority 2018, dated 2020).

The target in assay [1] is T1, purified LasB protein from P. aeruginosa (Pseudomonas aeruginosa, UniProt P14756).
T1 construct: purchased Merck or Charles River Laboratories
The experiment in a line: Fluorometric assay to determine Ki (Abz-Ala-Gly-Leu-Ala-p-Nitro-Benzyl-Amide substrate). The format is biochemical. As for the experimental part:
(§1) Experiments were therefore conducted (1) to measure the potency of inhibition of compounds of the invention against purified Pseudomonas aeruginosa LasB enzyme and also experiments were conducted (2) to measure the ability of compounds of the invention to inhibit LasB-catalysed elastin degradation. The first assay uses a commercial fluorescent synthetic peptide and purified LasB enzyme. The LasB hydrolysis kinetics are measured allowing the determination of the IC50 and Ki of the inhibitors; the second is a more physiological assay using dialysed Pseudomonas aeruginosa supernatant as source of enzyme, plus its natural substrate Elastin. It is an "end point assay" that determines the percentage of LasB inhibition by each compound for one particular time point and inhibitor concentration. Technical details are described below:
This assay uses commercially available substrate (Abz-Ala-Gly-Leu-Ala-p-Nitro-Benzyl-Amide (Ex: 340 nm, Em: 415 nm) from Peptide International) and purified LasB protein from P. aeruginosa (provided by Merck or Charles River Laboratories). It is performed to determine LasB elastase activity and assess compound inhibition in 96-well plate format. All compounds of Formula (I) were assessed using the method described below.
Method: 10 to 140 ng/ml purified LasB is incubated with 250 µM Abz-Ala-Gly-Leu-Ala-p-Nitro-Benzyl-Amide in 50 mM Tris-HCl pH 7.4, 2.5 mM CaCl2, 0.01% of Triton X100 at 37°C. LasB activity (corresponding to fluorescence emission induced by substrate hydrolysis) is measured over 30 min at 37°C with a fluorescence plate reader such as the Perkin Elmer Envision or similar. Different range of inhibitor concentrations are routinely assessed depending of inhibitor potency from 0.0016 to 200 µM (2-fold dilutions series) in order to determine IC50.
The equation used to calculate the Ki from IC50 is: Ki = IC50 / (1+([S]/Km)) where [S] = 250 µM and Km = 214 µM.

Assay [2] concerns the target T2, LasB (Pseudomonas aeruginosa, UniProt P14756).
T2 construct: uses as source of enzyme dialysed supernatant from P. aeruginosa PAO1; endogenous in cells; host or cells: P. aeruginosa PAO1 culture supernatant, filtered and dialysed
Put plainly: Elastin assay to determine % inhibition (Elastin Congo-Red, dialysed culture supernatant). The format is biochemical, P. aeruginosa PAO1. The following applies: read-out: Elastin hydrolysis % inhibition @ 50 / 25 µM inhibitor concentration. As to the method: as §1
The Elastin assay uses as source of enzyme dialysed supernatant from P. aeruginosa PAO1 and the Elastin Congo-Red as substrate. The natural LasB substrate, elastin, is complexed with the congo-red dye (Elastin Congo-Red, ECR). The elastolysis activity from the culture supernatant will degrade elastin and release the congo-red dye into the supernatant. This red dye release can be measured with a spectrophotometer.
Method: To determine LasB elastase activity and assess compound inhibition, an overnight culture of P. aeruginosa strain PAO1 is diluted in LB medium. After reaching an OD600nm of 0.6, this culture is diluted and incubated for additional 18-24 hours in a shaking incubator. Culture supernatants are recovered by centrifugation and filtrated through a […] filter. These supernatants are dialysed (filtration molecules < 20kDa) into a 50 mM Tris-HCl pH 7.4, 2.5 mM CaCl2 solution at 4°C under agitation for 24 hours. Supernatant dialysed is then mixed volume/volume with the ECR suspension (20 mg/mL of ECR in 100 mM Tris-HCl pH 7.4 buffer supplemented with 1 mM CaCl2) supplemented with Triton X100 (final concentration of 0.01%) in presence of DMSO (positive control) and/or different concentrations of compound (routinely 50 to 1.56 µM). As a negative control, the dialysed supernatant is replaced by Tris-HCl solution (50 mM Tris-HCl pH 7.4, 2.5 mM CaCl2). The mixed reaction is then incubated overnight in a 37°C shaking incubator. The reaction supernatant is recovered by centrifugation and the release of congo-red is measured by its absorbance at 495 nm (OD495nm).
Percentage inhibition is determined using the following equation: ((OD495nmvalue of positive control−OD495nmvalue of negative control)−(OD495nmvalue of treated supernatant−OD495nmvalue of positive control))/(OD495nmvalue of positive control−OD495nmvalue of negative control) × 100. [formula]

Where [3] appears, read: Ki calculated from IC50, [S] = 250 µM, Km = 214 µM, 37°C, pH 7.4.

Like-named read-outs stand apart in the source and are kept apart here.

T2 sequence (P14756 198-498): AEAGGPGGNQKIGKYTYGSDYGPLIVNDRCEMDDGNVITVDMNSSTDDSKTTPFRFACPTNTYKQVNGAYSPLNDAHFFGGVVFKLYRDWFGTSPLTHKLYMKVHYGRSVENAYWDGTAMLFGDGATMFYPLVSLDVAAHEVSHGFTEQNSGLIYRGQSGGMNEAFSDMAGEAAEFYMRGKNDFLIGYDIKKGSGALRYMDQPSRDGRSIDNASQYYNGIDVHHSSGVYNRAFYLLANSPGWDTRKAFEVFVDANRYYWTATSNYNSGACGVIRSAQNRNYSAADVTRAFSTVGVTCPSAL
T1 sequence (P14756 198-498): as above

As for `O=C(O)CC1(C(=O)NCc2ncc(-c3ccccc3)s2)Cc2ccccc2C1` [Example 2, 2-[2-[(5-phenylthiazol-2-yl)methylcarbamoyl]indan-2-yl]acetic acid], the inhibition constant Ki (commonly the equilibrium dissociation constant of an inhibitor or competing ligand from its target) in assay [1] is 200 to 10000 nM. For the same compound, the inhibition at 25 µM in assay [2] fell in the range of 10 to 60%. In turn, `O=C(O)CC1(C(=O)NCc2nc(-c3ccccc3)cs2)Cc2cc(F)c(F)cc2C1` [Example 3, 2-[5,6-difluoro-2-[(4-phenylthiazol-2-yl)methylcarbamoyl]indan-2-yl]acetic acid] registered a Ki in assay [1] of less than 50 nM. Besides, the inhibition at 25 µM in assay [2] is more than 75%. The matching figures for `COc1cccc(-c2csc(CNC(=O)C3(CC(=O)O)Cc4ccccc4C3)n2)c1` [Example 5, 2-[2-[[4-(3-methoxyphenyl)thiazol-2-yl]methylcarbamoyl]indan-2-yl]acetic acid]: 50 to 200 nM and 60 to 75%.

`COc1ccc(-c2csc(CNC(=O)C3(CC(=O)O)Cc4ccccc4C3)n2)cc1` [Example 6, 2-[2-[[4-(4-methoxyphenyl)thiazol-2-yl]methylcarbamoyl]indan-2-yl]acetic acid] gave a Ki in assay [1] of 50 to 200 nM. Further, the inhibition at 25 µM in assay [2] was more than 75%. Compound `O=C(O)CC1(C(=O)NCc2nc(-c3ccc(Cl)cc3)cs2)Cc2ccccc2C1` [Example 7, 2-[2-[[4-(4-chlorophenyl)thiazol-2-yl]methylcarbamoyl]indan-2-yl]acetic acid] displayed a Ki in assay [1] of 50 to 200 nM. In addition, the inhibition at 25 µM in assay [2] was 60 to 75%. In assay [1], `O=C(O)CC1(C(=O)NCc2nc(-c3cccnc3)cs2)Cc2ccccc2C1` [Example 8, 2-[2-[[4-(3-pyridyl)thiazol-2-yl]methylcarbamoyl]indan-2-yl]acetic acid] returned a Ki of 50 to 200 nM. In assay [2], the inhibition at 25 µM lay within 60 to 75%. In assay [1], `O=C(O)CC1(C(=O)NCc2nc(-c3ccccn3)cs2)Cc2ccccc2C1` [Example 9, 2-[2-[[4-(2-pyridyl)thiazol-2-yl]methylcarbamoyl]indan-2-yl]acetic acid] had an inhibition constant (Ki) of 200 to 10000 nM. Also, in assay [2], the inhibition at 25 µM lay within 60 to 75%. Taken in the same sequence, the figures for `O=C(O)CC1(C(=O)NCc2nc(-c3ccccc3O)cs2)Cc2ccccc2C1` [Example 10, 2-[2-[[4-(2-hydroxyphenyl)thiazol-2-yl]methylcarbamoyl]indan-2-yl]acetic acid] were 50 to 200 nM and 10 to 60%. In assay [1], `O=C(O)CC1(C(=O)NCc2nc(-c3ccc(O)cc3)cs2)Cc2ccccc2C1` [Example 11, 2-[2-[[4-(4-hydroxyphenyl)thiazol-2-yl]methylcarbamoyl]indan-2-yl]acetic acid] had a Ki of 50 to 200 nM. Also, the inhibition at 25 µM in assay [2] was in the range of 60 to 75%. Taken in the same sequence, the figures for `O=C(O)CC1(C(=O)NCc2nc(-c3cccc(O)c3)cs2)Cc2ccccc2C1` [Example 12, 2-[2-[[4-(3-hydroxyphenyl)thiazol-2-yl]methylcarbamoyl]indan-2-yl]acetic acid] were 50 to 200 nM and 60 to 75%. The matching figures for `O=C(O)CC1(C(=O)NCc2nc(-c3ccccc3OCCO)cs2)Cc2ccccc2C1` [Example 13, 2-[2-[[4-[2-(2-hydroxyethoxy)phenyl]thiazol-2-yl]methylcarbamoyl]indan-2-yl]acetic acid]: 50 to 200 nM and 60 to 75%.

Take `NCCOc1ccccc1-c1csc(CNC(=O)C2(CC(=O)O)Cc3ccccc3C2)n1` [Example 14, 2-[2-[[4-[2-(2-aminoethoxy)phenyl]thiazol-2-yl]methylcarbamoyl]indan-2-yl]acetic acid]: the inhibition constant (Ki) in assay [1] fell in the range of 200 to 10000 nM. For the same compound, the inhibition at 25 µM in assay [2] is 10 to 60%. For the compound `CN(C)CCOc1cccc(-c2csc(CNC(=O)C3(CC(=O)O)Cc4ccccc4C3)n2)c1` [Example 53, 2-[2-[[4-[3-[2-(dimethylamino)ethoxy]phenyl]thiazol-2-yl]methylcarbamoyl]indan-2-yl]acetic acid], the Ki in assay [1] lay within 200 to 10000 nM. Take `CN(C)CCn1cc(-c2csc(CNC(=O)C3(CC(=O)O)Cc4ccccc4C3)n2)cn1` [Example 97, 2-[2-[[4-[1-[2-(dimethylamino)ethyl]pyrazol-4-yl]thiazol-2-yl]methylcarbamoyl]indan-2-yl]acetic acid]: the Ki in assay [1] is 200 to 10000 nM.

For the compound `C[N+]1(CCCn2cc(-c3csc(CNC(=O)C4(CC(=O)[O-])Cc5ccccc5C4)n3)cn2)CCOCC1` [Example 100, 2-[2-[[4-[1-[3-(4-methylmorpholin-4-ium-4-yl)propyl]pyrazol-4-yl]thiazol-2-yl]methylcarbamoyl]indan-2-yl]acetate], the Ki in assay [1] (setting [3]) is 200 to 10000 nM. Take `CC(=O)N1CC[N+](C)(CCCn2cc(-c3csc(CNC(=O)C4(CC(=O)[O-])Cc5ccccc5C4)n3)cn2)CC1` [Example 107, 2-[2-[[4-[1-[3-(4-acetyl-1-methyl-piperazin-1-ium-1-yl)propyl]pyrazol-4-yl]thiazol-2-yl]methylcarbamoyl]indan-2-yl]acetate]: in assay [1], the Ki is 200 to 10000 nM. Regarding `O=C(O)CC1(C(=O)NCc2nc(-c3cnn(CCCN4CCCCC4)c3)cs2)Cc2ccccc2C1` [Example 111, 2-[2-[[4-[1-[3-(1-piperidyl)propyl]pyrazol-4-yl]thiazol-2-yl]methylcarbamoyl]indan-2-yl]acetic acid], the Ki in assay [1] lay within 200 to 10000 nM.

In assay [1], `CN(C)C(=O)C1CCN(CCCn2cc(-c3csc(CNC(=O)C4(CC(=O)O)Cc5ccccc5C4)n3)cn2)CC1` [Example 113, 2-[2-[[4-[1-[3-[4-(dimethylcarbamoyl)-1-piperidyl]propyl]pyrazol-4-yl]thiazol-2-yl]methylcarbamoyl]indan-2-yl]acetic acid] gave a Ki of 200 to 10000 nM.

For the compound `C[N+]1(C)CCC(C(=O)N2CC[N+](C)(CCCn3cc(-c4csc(CNC(=O)C5(CC(=O)O)Cc6ccccc6C5)n4)cn3)CC2)CC1` [Example 115, 2-[2-[[4-[1-[3-[4-(1,1-dimethylpiperidin-1-ium-4-carbonyl)-1-methyl-piperazin-1-ium-1-yl]propyl]pyrazol-4-yl]thiazol-2-yl]methylcarbamoyl]indan-2-yl] acetate], the Ki in assay [1] (setting [3]) is 200 to 10000 nM. `C[n+]1ccc(CCn2cc(-c3csc(CNC(=O)C4(CC(=O)[O-])Cc5ccccc5C4)n3)cn2)cc1` [Example 117, 2-[2-[[4-[1-[2-(1-methylpyridin-1-ium-4-yl)ethyl]pyrazol-4-yl]thiazol-2-yl]methylcarbamoyl]indan-2-yl]acetate] had a Ki in assay [1] of 200 to 10000 nM. In assay [1], `C[n+]1ccc(CCCn2cc(-c3csc(CNC(=O)C4(CC(=O)[O-])Cc5ccccc5C4)n3)cn2)cc1` [Example 118, 2-[2-[[4-[1-[3-(1-methylpyridin-1-ium-4-yl)propyl]pyrazol-4-yl]thiazol-2-yl]methylcarbamoyl]indan-2-yl]acetate] registered a Ki of 200 to 10000 nM. As for `CN(C)CCNS(=O)(=O)c1ccc(-c2csc(CNC(=O)C3(CC(=O)O)Cc4ccccc4C3)n2)cc1` [Example 131, 2-[2-[[4-[4-[2-(dimethylamino)ethylsulfamoyl]phenyl]thiazol-2-yl]methylcarbamoyl]indan-2-yl]acetic acid], the Ki in assay [1] lay within 200 to 10000 nM.

In the case of `CN1CCN(C(=O)c2cncc(-c3csc(CNC(=O)C4(CC(=O)O)Cc5ccccc5C4)n3)c2)CC1` [Example 144, 2-[2-[[4-[5-(4-methylpiperazine-1-carbonyl)-3-pyridyl]thiazol-2-yl]methylcarbamoyl]indan-2-yl]acetic acid], the Ki in assay [1] lay in the range of 200 to 10000 nM.
